In article PMC5786306, “An AKAP-Lbc-RhoA interaction inhibitor promotes the translocation of aquaporin-2 to the plasma membrane of renal collecting duct principal cells” (PLoS ONE, 2018):
Read-outs that look alike come from different tables or passages of the source.

Experiments:
[1] = target: T1, interaction of AKAP-Lbc/DHPH and RhoA (Homo sapiens, UniProt P61586); assay: Homogeneous time-resolved fluorescence (HTRF) assay; type: binding; conditions: for inhibitory effect on the AKAP-Lbc/DHPH-RhoA interaction: result in words
T1 construct: His6-AKAP-Lbc/DHPH (aa 1972–2342 of human AKAP-Lbc; NP_006729.4); made in house
T1 sequence (P61586 whole entry, the tested form may be a part): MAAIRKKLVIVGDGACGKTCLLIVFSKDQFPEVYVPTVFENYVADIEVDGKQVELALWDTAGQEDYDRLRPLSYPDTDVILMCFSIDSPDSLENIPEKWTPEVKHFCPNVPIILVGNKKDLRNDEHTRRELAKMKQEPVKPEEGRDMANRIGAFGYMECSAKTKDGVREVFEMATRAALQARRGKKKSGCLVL
Source text: Fig 2 The small molecule Scaff10-8 inhibits the interaction of the DH domain of AKAP-Lbc and RhoA. (A). Principle of homogenous time-resolved fluorescence (HTRF) assay. Recombinant His-AKAP-Lbc/DHPH and GST-RhoA were generated. The tags are recognized by specific antibodies coupled to fluorescent dyes. When the two proteins interact, donor and acceptor dyes of the antibodies are in close proximity, energy transfer occurs upon excitation at 320 nm and a FRET signal is detected (665 nm). If a compound disrupts the interaction of the DHPH domain and RhoA, the proximity of the fluorescent moieties remains insufficient for a FRET signal to occur. […] As expected, excess untagged Rho decreases the binding between GST-RhoA and His-AKAP-Lbc/DHPH in a dose-dependent manner (lower left panel). […] (C) The influence of Scaff10-8 on the interaction of RhoA with the recombinant DH domain of AKAP-Lbc in the absence of the PH domain was determined by Alpha screen. […] The IC50 value is indicated.
The assay was essentially carried out as described. Scaff10 derivatives were added to His6-AKAP-Lbc/DHPH protein (250 nM final concentration) in HTRF buffer (PBS; 4 mM MgCl2; 0.05% Tween 20) in 384 well plates (Proxiplate-384 Plus, white, #6008289; Perkin Elmer LAS, Rodgau, Germany). Concentrations of Scaff10 derivatives ranged between 1.56–200 μM (2% DMSO final concentration); HTRF buffer with 2% DMSO served as a control. GST-RhoA (30 nM final concentration) in HTRF buffer and anti-GST antibody coupled to terbium (donor) and anti-His6-tag antibody coupled to XL665 (acceptor) were added to all wells (final antibody concentration: 2 μg/ml). After 1 h incubation at room temperature in the dark, FRET signals were recorded at 620 and 665 nm using a Genios Pro plate reader (Tecan Austria GmbH, Grödig, AT) and the ratios of […] to 620 nm were calculated. Wells containing no compound were set to 100% interaction of AKAP-Lbc/DHPH with RhoA, wells containing GST-RhoA only (without His6-AKAP-Lbc/DHPH) were set to 0% interaction. To exclude any interference of the tags and/or antibodies with Scaff10 derivatives, a His6-GST fusion protein replaced the two tagged proteins in a control assay. Wells containing His6-GST fusion protein were set to 100% interaction of His6-GST, wells containing no fusion protein were set to 0% interaction.

Nephelometric solubility = type: physicochemical; conditions: maximal solubility in DMEM + 10 % FCS
Description: Solubility of Scaff10 derivatives was assessed nephelometrically. Scaff10 derivatives are moderately to poorly soluble in aqueous solutions due to their large number of aromatic rings having lipophilic character. Details about NMR, LC/MS and HPLC characterization steps are given in the Supplemental Information.
Suppl. Tab. 3: Overview of all 55 Scaff10 derivatives.Structures labeld with 1 were commercially obtained. MW = molecular weight. logP = calculated partition coefficient (using […]
Solubility was assessed nephelometrically in DMEM + 10 % FCS + Scaff10 derivative with either 0.3 or 2 % DMSO
final concentration; values in µM indicate maximal solubility of the compound under the respective condition. Yield in % indicates total yield of the last step of chemical synthesis
for each of Scaff10 derivatives. n.d. = not determined. n.i. = not indicated.
Scaff10 MW Number of exp. 2 % DMSO 0.3 % DMSO Scaff10 Yield
Structure log P Disruption of the PPI IC50 [µM]
derivative [g/mol] in dupl. [µM] [µM] class [%]

[2] = Suppl. Tab. 3, ± SEM, '-' = no IC50, inactive, n.d. = not determined, read-out: HTRF assay IC50
[3] = DMEM + 10 % FCS, plasma or biological fluid, kinetic from dmso stock, 2 % DMSO final, read-out: Solubility 2 % DMSO
[4] = 2 % DMSO final, read-out: Solubility 2 % DMSO
[5] = DMEM + 10 % FCS, plasma or biological fluid, kinetic from dmso stock, 0.3 % DMSO final, read-out: Solubility 0.3 % DMSO
[6] = Table 1, HTRF, '-' = no IC50, inactive (n.d. is used separately in S3 Table), read-out: IC50 ± SEM
[7] = 0.3 % DMSO final, read-out: Solubility 0.3 % DMSO
[8] = IC50 ± SEM, Table 1, HTRF, '-' = no IC50, inactive (n.d. is used separately in S3 Table)
[9] = IC50 for inhibition of the AKAP-Lbc/DHPH-RhoA interaction, HTRF, text and figures, ± SEM, n = 3–15 in duplicate

Row | Compound | IC50 [1, 2] | solubility (Nephelometric solubility; [3]) | solubility (Nephelometric solubility; [4]) | solubility (Nephelometric solubility; [5]) | IC50 [1, 6] | also measured
1 | COc1ccc(-c2coc3cc4oc(=O)ccc4cc23)cc1 [Scaff10-1, 3-(4-Methoxyphenyl)furo[3,2-g]chromen-7-one] | > 200 µM | 45 µM | – | 40 µM | – | –
2 | Cc1nc(-c2ccc(F)cc2)ccc1-c1coc2cc3oc(=O)c(C)c(C)c3cc12 [Scaff10-5, 3-[6-(4-Fluorophenyl)-2-methyl-3-pyridyl]-5,6-dimethyl-furo[3,2-g]chromen-7-one] | > 200 µM | 65 µM | – | > 150 µM | – | –
3 | COc1ccc(C(=O)COc2ccc3c(C)c(CCC(=O)NCCNC(=O)CCCCC4SCC5NC(=O)NC54)c(=O)oc3c2)cc1 (stereo not drawn) [Scaff10-9, N-[2-[3-[7-[2-(4-Methoxyphenyl)-2-oxo-ethoxy]-4-methyl-2-oxo-chromen-3-yl]propanoylamino]ethyl]-5-(2-oxo-1,3,3a,4,6,6a-hexahydrothieno[3,4-d]imidazol-4-yl)pentanamide] | > 200 µM | – | – | – | – | –
4 | COc1ccc(-c2coc3cc4oc(=O)c(CCC(=O)N(C)C)c(C)c4cc23)cc1 [Scaff10-26] | – | – | 50 µM | – | > 200 µM | inhibitory effect on the AKAP-Lbc/DHPH-RhoA interaction ([1]; HTRF): complete loss of the inhibitory effect; solubility (Nephelometric solubility; [7]): > 150 µM
5 | Cc1c(CCC(=O)O)c(=O)oc2cc3occ(-c4ccc(C(F)(F)F)cc4)c3cc12 [Scaff10-30] | – | > 100 µM | – | – | – | inhibitory effect on the AKAP-Lbc/DHPH-RhoA interaction ([1]; HTRF): reduced; IC50 [1, 8]: 47.8 ± 7.8 µM
6 | Cc1c(CCC(=O)O)c(=O)oc2cc3occ(-c4ccncc4)c3cc12 [Scaff10-32] | – | – | > 100 µM | – | > 200 µM | inhibitory effect on the AKAP-Lbc/DHPH-RhoA interaction ([1]; HTRF): complete loss of activity; solubility (Nephelometric solubility; [7]): > 150 µM
7 | Cc1c(CCC(=O)O)c(=O)oc2cc3occ(-c4ccc(-c5ccccc5)cc4)c3cc12 [Scaff10-41] | – | 50 µM | – | – | – | IC50 [1, 8]: 29.1 ± 2.6 µM
8 | COc1ccc2cc(-c3coc4cc5oc(=O)c(CCC(=O)O)c(C)c5cc34)ccc2c1 [Scaff10-44] | – | 15 µM | – | 40 µM | – | IC50 [1, 8]: 20.7 ± 2.5 µM
9 | Cc1c(C)c2cc3c(-c4ccc(-c5ccccc5)cc4)coc3cc2oc1=O [Scaff10-46] | – | – | 15 µM | – | > 200 µM | inhibitory effect on the AKAP-Lbc/DHPH-RhoA interaction ([1]; HTRF): no inhibitory effect; solubility (Nephelometric solubility; [7]): > 150 µM
10 | COc1ccc2cc(-c3coc4cc5oc(=O)c(C)c(C)c5cc34)ccc2c1 [Scaff10-47] | – | – | 15 µM | – | > 200 µM | inhibitory effect on the AKAP-Lbc/DHPH-RhoA interaction ([1]; HTRF): no inhibitory effect; solubility (Nephelometric solubility; [7]): > 150 µM
11 | COc1ccc(-c2coc3c(C)c4oc(=O)c(CCC(=O)O)c(C)c4cc23)cc1 [Scaff10-50] | 26.8 ± 3.5 µM | 70 µM | – | > 150 µM | – | –
12 | COc1ccc(-c2coc3cc4oc(=O)c(CCC(=O)NO)c(C)c4cc23)cc1 [Scaff10-51] | – | – | 20 µM | – | > 200 µM | inhibitory effect on the AKAP-Lbc/DHPH-RhoA interaction ([1]; HTRF): almost complete loss of activity; solubility (Nephelometric solubility; [7]): 40 µM
13 | Cc1c(CCC(=O)O)c(=O)oc2cc3occ(-c4ccccc4)c3cc12 [Scaff10-58] | – | > 100 µM | – | > 150 µM | 66.7 ± 7.5 µM | –
14 | COc1ccc(-c2coc3cc4oc(=O)c(CCC(=O)NCC(=O)O)c(C)c4cc23)cc1 [Scaff10-61] | – | – | – | > 150 µM | – | IC50 [1, 8]: 64 ± 6 µM
15 | COc1cccc(-c2ccc(-c3coc4cc5oc(=O)c(CCC(=O)O)c(C)c5cc34)cc2)c1 [Scaff10-64] | – | 70 µM | – | > 150 µM | – | IC50 [1, 8]: 28.9 ± 9.3 µM

Now from value to compound, other results behind:

Row | IC50 [1, 2] | solubility (Nephelometric solubility; [3]) | solubility (Nephelometric solubility; [4]) | solubility (Nephelometric solubility; [5]) | IC50 [1, 6] | Compound | also measured
16 | > 200 µM | 30 µM | – | – | – | COc1ccc(C(=O)COc2ccc3ccc(=O)oc3c2)cc1 [AE167, 7-[2-(4-Methoxyphenyl)-2-oxo-ethoxy]chromen-2-one] | –
17 | > 200 µM | – | 75 µM | – | – | COc1ccc(C(=O)COc2ccc3c(C)c(C)c(=O)oc3c2)cc1 [AE168, [2-(4-Methoxyphenyl)-2-oxo-ethoxy]-3,4-dimethyl-chromen-2-one] | –
18 | > 200 µM | 90 µM | – | 75 µM | – | Cc1c(C)c2ccc(OCC(=O)c3cccnc3)cc2oc1=O [Scaff10-2, 3,4-Dimethyl-7-[2-oxo-2-(3-pyridyl)ethoxy]chromen-2-one] | –
19 | > 200 µM | 40 µM | – | > 150 µM | – | Cc1c(C)c2cc3c(-c4cccnc4)coc3cc2oc1=O [Scaff10-3, 5,6-Dimethyl-3-(3-pyridyl)furo[3,2-g]chromen-7-one] | –
20 | > 200 µM | 40 µM | – | > 150 µM | – | Cc1nc(-c2ccc(F)cc2)ccc1C(=O)COc1ccc2c(C)c(C)c(=O)oc2c1 [Scaff10-4, 7-[2-[6-(4-Fluorophenyl)-2-methyl-3-pyridyl]-2-oxo-ethoxy]-3,4-dimethyl-chromen-2-one] | –
21 | – | 100 µM | – | > 150 µM | > 200 µM | COc1ccc(C(=O)COc2ccc3c(C)c(CCC(=O)O)c(=O)oc3c2)cc1 [Scaff10-6, 3-[7-[2-(4-Methoxyphenyl)-2-oxo-ethoxy]-4-methyl-2-oxo-chromen-3-yl]propanoic acid] | –
22 | > 200 µM | – | 30 µM | – | – | CCOC(=O)CCc1c(C)c2ccc(OCC(=O)c3ccc(-c4ccc(F)cc4)nc3C)cc2oc1=O [Scaff10-10, Ethyl 3-[7-[2-[6-(4-fluorophenyl)-2-methyl-3-pyridyl]-2-oxo-ethoxy]-4-methyl-2-oxo-chromen-3-yl]propanoate] | solubility (Nephelometric solubility; [7]): > 150 µM
23 | – | – | > 100 µM | – | > 200 µM | Cc1c(CCC(=O)O)c(=O)oc2cc(OCC(=O)c3ccc(N(C)C)cc3)ccc12 [Scaff10-35] | inhibitory effect on the AKAP-Lbc/DHPH-RhoA interaction ([1]; HTRF): complete loss of activity; solubility (Nephelometric solubility; [7]): > 150 µM
24 | – | 15 µM | – | 10 µM | – | Cc1c(CCC(=O)O)c(=O)oc2cc(OCC(=O)c3ccc(-c4ccccc4)cc3)ccc12 [Scaff10-40] | IC50 [1, 9]: 21 ± 3 µM; IC50 [1, 8]: 20.8 ± 2.6 µM
25 | – | > 100 µM | – | > 150 µM | 56.4 ± 4.5 µM | COc1ccc(-c2coc3cc4oc(=O)c(CC(=O)O)c(C)c4cc23)cc1 [Scaff10-49] | IC50 ([1]; HTRF, text and figures, ± SEM, n = 3–15 in duplicate, read-out: IC50 for inhibition of the AKAP-Lbc/DHPH-RhoA interaction): 56 ± 5 µM
26 | – | 30 µM | – | 75 µM | – | COc1cccc(-c2ccc(C(=O)COc3ccc4c(C)c(CCC(=O)O)c(=O)oc4c3)cc2)c1 [Scaff10-63] | IC50 [1, 9]: 24 ± 8 µM; IC50 [1, 8]: 24.4 ± 8.4 µM
